According to patent publication US4535090A, “3,5-Diphenyl-1H-1,2,4-triazoles pharmaceutical compositions and uses” (Gruppo Lepetit S.p.A., priority 1981, dated 1985):
Where two headings read alike, the source gives them in different places.

Test system: pregnancy in female Sprague Dawley rats
Test: Pregnancy termination activity in rats after a single subcutaneous injection at day 7 of gestation
Assay type: in vivo, rat (Sprague Dawley)
Settings: rat, single s.c. injection; for ED50: sc, autopsy day 16, read-out: ED50 (dose terminating pregnancy, absence of live fetuses, in 50% of the treated animals); for ED50 (dose terminating pregnancy, absence of live fetuses, in 50% of the treated animals): autopsy day 16
Method: In particular, female Sprague Dawley rats weighing 200-230 g were mated and the presence of sperm in the vagina was taken as evidence of mating. The day the sperm was detected, was considered day one of pregnancy. Pregnancy was later confirmed at the time of autopsy by the presence of implantation sites in the uterus.
Test compounds dissolved in sesame oil containing 20% benzyl benzoate (or suspended if insoluble), were administered subcutaneously, in a single injection, on day 7 of gestation. The animals were then autopsied on day 16 of pregnancy and the uteri were examined for evidence of pregnancy (implantation sites, fetal resorption or live fetuses), hemorrage, and evidence of abnormalities of the uterus, placenta or fetuses.

[1] = dissolved in sesame oil containing 20% benzyl benzoate (or suspended if insoluble)

Compound	ED50 [1] [mg/kg]	other results
CCCCCCCCCC(=O)OCc1ccccc1-c1nc(-c2ccc(OC)c(OC)c2)n[nH]1 [Example 8, 5-(2-decanoyloxymethylphenyl)-3-(3,4-dimethoxyphenyl)-1H-1,2,4-triazole]	10	–
CCCCCCCC(=O)OCc1ccccc1-c1nc(-c2cccc(OC)c2)n[nH]1 [Example 1, 3-(3-methoxyphenyl)-5-(2-octanoyloxymethylphenyl)-1H-1,2,4-triazole]	13	–
CCCCCCCCCC(=O)OCc1ccccc1-c1nc(-c2cccc(OCC)c2)n[nH]1 [Example 7]	2	–
CCCCCC(=O)OCc1ccccc1-c1nc(-c2cccc(OCC)c2)n[nH]1 [Example 9, 3-(3-ethoxyphenyl)-5-(2-hexanoyloxymethylphenyl)-1H-1,2,4-triazole]	7	–
CCCCCCCCCCCC(=O)OCc1ccccc1-c1nc(-c2ccc(OC)c(OC)c2)n[nH]1 [Example 6, 5-(2-dodecanoyloxymethylphenyl)-3-(3,4-dimethoxyphenyl)-1H-1,2,4-triazole]	2	–
CCCCCCCCCC(=O)OCc1ccccc1-c1nc(-c2cccc(OC)c2)n[nH]1 [Example 4, 5-(2-decanoyloxymethylphenyl)-3-(3-methoxyphenyl)-1H-1,2,4-triazole]	2	–
1-acetyl-3(5)-(2-decanoyloxymethylphenyl)-5(3)-(3,4-dimethoxyphenyl)-1H-1,2,4-triazole [Example 10]	–	ED50 (dose terminating pregnancy, absence of live fetuses, in 50% of the treated animals) [1]: 4 mg/kg
COc1cccc(-c2n[nH]c(-c3ccccc3COC(C)=O)n2)c1 [5-(2-Acetyloxymethylphenyl)-3-(3-methoxyphenyl)-1H--1,2,4-triazole, reference compound]	50	–
CCCCCCCCCCCC(=O)OCc1ccccc1-c1nc(-c2cccc(OC)c2)n[nH]1 [Example 2, 5-(2-dodecanoyloxymethylphenyl)-3-(3-methoxyphenyl)-1H-1,2,4-triazole]	2	–
1-hexanoyl-3(5)-(2-hexanoyloxymethylphenyl)-5(3)-(3-methoxyphenyl)-1H-1,2,4-triazole [Example 11]	–	ED50 (dose terminating pregnancy, absence of live fetuses, in 50% of the treated animals) [1]: 8 mg/kg
CCCCCCCC(=O)OCc1ccccc1-c1nc(-c2cccc(OCC)c2)n[nH]1 [Example 3, 3-(3-ethoxyphenyl)-5-(2-octanoyloxymethylphenyl)-1H-1,2,4-triazole]	4	–
COc1cccc(-c2n[nH]c(-c3ccccc3CO)n2)c1 [5-(2-Hydroxymethylphenyl)-3-(3-methoxyphenyl)-1H--1,2,4-triazole, reference compound]	–	ED50 (given suspended instead of dissolved): 40 mg/kg
